Experimental data: ChEMBL document CHEMBL4627310, “Design, synthesis and biological evaluation of 3-nitro-1,8-naphthalimides as potential antitumor agents” (Bioorg Med Chem Lett, 2020)
pIC50: −log10 of the molar value.

Tests used:
SMMC-7721 = assay: Antiproliferative activity against human SMMC7721 cells assessed as cell growth inhibition measured after 48 hrs by MTT assay; assay type: functional, cell-based; settings: SMMC-7721, 48 h
A549 = assay: Antiproliferative activity against human A549 cells assessed as cell growth inhibition measured after 48 hrs by MTT assay; assay type: functional, cell-based; settings: A549, 48 h
T-24 = assay: Antiproliferative activity against human T24 cells assessed as cell growth inhibition measured after 48 hrs by MTT assay; assay type: functional, cell-based; settings: T-24, 48 h
L02 = assay: Cytotoxicity against human HL7702 cells assessed as cell growth inhibition measured after 48 hrs by MTT assay; assay type: cell-based; settings: L02, 48 h
HepG2 = assay: Antiproliferative activity against human HepG2 cells assessed as cell growth inhibition measured after 48 hrs by MTT assay; assay type: functional, cell-based; settings: HepG2, 48 h
SK-OV-3 = assay: Antiproliferative activity against human SKOV3 cells assessed as cell growth inhibition measured after 48 hrs by MTT assay; assay type: functional, cell-based; settings: SK-OV-3, 48 h

`O=C1c2cccc3cc([N+](=O)[O-])cc(c23)C(=O)N1Nc1nc2ccccc2s1` showed a pIC50 (SMMC-7721) of less than 4.00, a pIC50 (A549) of 4.36 and a pIC50 (T-24) of 4.51. It also gave a pIC50 (L02) of 4.19, a pIC50 (HepG2) of 4.29 and a pIC50 (SK-OV-3) of 4.23.
